One assay addresses Acetylcholinesterase (Electrophorus electricus, UniProt O42275). The assay is described as follows: In vitro AChE and BChE Assay. The note with it: pH 8. The procedure:
(§1) The synthesized compounds (each separately) were dissolved in a mixture of DMSO (1 ml) and methanol (9 ml) and then diluted in KH2PO4/K2HPO4 buffer (0.1 M, pH 8.0) to obtain desired concentration. […] The mixture was pre-incubated at 30 °C for 10 min and followed by adding 1 mM ATCI or BTCI and incubated again for 15 min. […] Instead of inhibitor, DMSO was used asnegative control to subtract its effect on activity. All reactions were carried out in triplicate.

The target of assay [1] is Carboxylic ester hydrolase (Equus caballus, UniProt Q9N1N9). The assay is described as follows: In vitro AChE and BChE Assay. The conditions noted are these: pH 8. How it is done:
as §1

These results are taken from BindingDB's records for doi:10.1016/j.bioorg.2016.10.002 (Hazara University, 2016).

Molecules are shown by their SMILES.

Carboxylic ester hydrolase, sequence (Q9N1N9 whole entry): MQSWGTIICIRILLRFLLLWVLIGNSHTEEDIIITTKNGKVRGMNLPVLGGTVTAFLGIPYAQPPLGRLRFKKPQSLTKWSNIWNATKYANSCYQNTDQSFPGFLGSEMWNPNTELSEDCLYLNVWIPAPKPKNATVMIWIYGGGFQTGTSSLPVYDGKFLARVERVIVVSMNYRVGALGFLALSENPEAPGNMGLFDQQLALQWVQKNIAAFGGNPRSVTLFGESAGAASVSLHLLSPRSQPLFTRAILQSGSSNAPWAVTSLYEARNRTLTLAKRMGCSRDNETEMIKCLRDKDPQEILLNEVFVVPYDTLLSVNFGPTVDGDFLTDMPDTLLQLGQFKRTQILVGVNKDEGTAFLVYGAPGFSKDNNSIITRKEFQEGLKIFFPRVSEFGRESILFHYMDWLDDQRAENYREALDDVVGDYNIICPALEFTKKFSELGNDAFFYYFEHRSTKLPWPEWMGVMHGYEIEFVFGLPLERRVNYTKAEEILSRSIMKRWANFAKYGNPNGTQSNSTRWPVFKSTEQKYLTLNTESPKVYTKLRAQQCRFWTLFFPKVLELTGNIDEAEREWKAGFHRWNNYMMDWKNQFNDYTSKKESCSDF
Acetylcholinesterase, sequence (O42275 whole entry): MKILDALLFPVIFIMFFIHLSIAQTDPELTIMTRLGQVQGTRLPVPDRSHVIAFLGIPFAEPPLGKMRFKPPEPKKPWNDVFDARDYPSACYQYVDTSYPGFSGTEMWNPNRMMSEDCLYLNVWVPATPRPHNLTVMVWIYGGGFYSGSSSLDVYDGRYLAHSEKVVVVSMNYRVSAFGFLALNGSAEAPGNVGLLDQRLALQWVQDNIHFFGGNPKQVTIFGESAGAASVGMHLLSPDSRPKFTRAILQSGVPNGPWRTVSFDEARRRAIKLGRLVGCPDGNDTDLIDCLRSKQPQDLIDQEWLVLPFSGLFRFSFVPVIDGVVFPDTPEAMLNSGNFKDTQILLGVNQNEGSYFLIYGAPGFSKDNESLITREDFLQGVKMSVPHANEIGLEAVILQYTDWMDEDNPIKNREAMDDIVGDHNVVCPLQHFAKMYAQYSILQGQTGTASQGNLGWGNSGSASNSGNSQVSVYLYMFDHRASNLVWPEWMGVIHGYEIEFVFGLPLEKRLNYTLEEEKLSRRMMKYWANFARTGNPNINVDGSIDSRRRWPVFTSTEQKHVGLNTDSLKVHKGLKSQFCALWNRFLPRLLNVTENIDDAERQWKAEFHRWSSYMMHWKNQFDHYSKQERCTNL

On to `CC(=O)C1=C(C)NC(NCC(=O)Nc2ccc(C)cc2)=NC1c1ccc(Cl)cc1` (stereo not drawn) [2-(5-Acetyl-4-(4-chlorophenyl)-6-methyl-1,4-dihydropyrimidin-2-ylamino)-N-p-tolylacetamide (5f)], for which the figures for the IC50 (against Acetylcholinesterase; in assay [1]) were 3.08 µM and 26.4 µM, respectively.

On Acetylcholinesterase, `CC(=O)C1=C(C)NC(=S)NC1c1ccc(Br)cc1` (stereo not drawn) [1-(4-(4-Bromophenyl)-6-methyl-2-thioxo-3,4-tetrahydropyrimidin-5-yl)ethanone (1b)] showed an IC50 of 53.2 µM.

With `CC(=O)C1=C(C)NC(N)=NC1c1ccc(Br)cc1` (stereo not drawn) [1-(2-Amino-4-(4-bromophenyl)-6-methyl-1,4-dihydropyrimidin-5-yl)ethanone (2b)], the IC50 against Acetylcholinesterase is 58 µM.

Consider `CC(=O)C1=C(C)NC(NCC(=O)Nc2ccc(Cl)cc2)=NC1c1ccccc1` (stereo not drawn) [2-(5-Acetyl-6-methyl-4-phenyl-1,4-dihydropyrimidin-2-ylamino)-N-(4-chlorophenyl)acetamide (5b)], for which the IC50 against Acetylcholinesterase was found to be 2.01 µM; in assay [1], 27.2 µM.

As to `CC(=O)C1=C(C)NC(N)=NC1c1ccccc1` (stereo not drawn) [1-(2-Amino-6-methyl-4-phenyl-1,4-dihydropyrimidin-5-yl)ethanone (2a)], 41.3 µM corresponded to half-maximal inhibition at Acetylcholinesterase (IC50).

As for `CC(=O)C1=C(C)NC(SCC(=O)Nc2ccccc2)=NC1c1ccccc1` (stereo not drawn) [2-(5-Acetyl-6-methyl-4-phenyl-1,4-dihydropyrimidin-2-ylthio)-N-phenylacetamide (4a)], the IC50 at Acetylcholinesterase came out at 0.17 µM; in assay [1] it was 2.37 µM.

On Acetylcholinesterase, `CC(=O)C1=C(C)NC(=S)NC1c1ccccc1` (stereo not drawn) [5-Aceto-6-methyl-4-phenyl-3,4-dihydropyrimidin-2(1H)-thione (1a)] displayed an IC50 of 87.6 µM. That is a double-digit micromolar value.

For the molecule `CC(=O)C1=C(C)NC(SCC(=O)Nc2ccc(C)cc2)=NC1c1ccc(C)cc1` (stereo not drawn) [2-(5-Acetyl-6-methyl-4-p-tolyl-1,4-dihydropyrimidin-2-ylthio)-N-p-tolylacetamide (4h)], the IC50 was 7.63 µM at Acetylcholinesterase and 56.3 µM in assay [1].

With `CC(=O)C1=C(C)NC(NCC(=O)Nc2ccc(C)cc2)=NC1c1ccc(Br)cc1` (stereo not drawn) [2-(5-Acetyl-4-(4-bromophenyl)-6-methyl-1,4-dihydropyrimidin-2-ylamino)-N-p-tolylacetamide (5e)], the IC50 at Acetylcholinesterase came out at 3.13 µM; in assay [1], 20.9 µM.

For `CC(=O)C1=C(C)NC(N)=NC1c1ccc(Cl)cc1` (stereo not drawn) [1-(2-Amino-4-(4-chlorophenyl)-6-methyl-1,4-dihydropyrimidin-5-yl)ethanone (2e)], the IC50 against Acetylcholinesterase is 68.3 µM.

Take `CC(=O)C1=C(C)NC(SCC(=O)Nc2ccc(C)cc2)=NC1c1ccc(Br)cc1` (stereo not drawn) [2-(5-Acetyl-4-(4-bromophenyl)-6-methyl-1,4-dihydropyrimidin-2-ylthio)-N-p-tolylacetamide (4e)]: the half-inhibitory concentration (IC50) against Acetylcholinesterase is 1.39 µM; in assay [1] it was 52.8 µM.

On Acetylcholinesterase, `CC(=O)C1=C(C)NC(=S)NC1c1ccc(OCc2ccccc2)cc1` (stereo not drawn) [1-(4-(4-(Benzyloxy)phenyl)-6-methyl-2-thioxo-3,4-tetrahydropyrimidin-5-yl)ethanone (1c)] yielded an IC50 of 28.1 µM. That is a double-digit micromolar value.

`CC(=O)C1=C(C)NC(SCC(=O)Nc2ccc(Cl)cc2)=NC1c1ccccc1` (stereo not drawn) [2-((5-Acetyl-6-methyl-4-phenyl-1,4-dihydropyrimidin-2-yl)thio)-N-(4-chlorophenyl)acetamide (4b)]: the IC50 against Acetylcholinesterase was 1.97 µM; in assay [1] it was 16.4 µM.

`CC(=O)C1=C(C)NC(NCC(=O)Nc2ccccc2)=NC1c1ccccc1` (stereo not drawn) [2-(5-Acetyl-6-methyl-4-phenyl-1,4-dihydropyrimidin-2-ylamino)-N-phenylacetamide (5a)]: the IC50 at Acetylcholinesterase was 5.33 µM; in assay [1], 15 µM.

In the case of `CC(=O)C1=C(C)NC(N)=NC1c1ccc(OCc2ccccc2)cc1` (stereo not drawn) [1-(2-Amino-4-(4-(benzyloxy)phenyl)-6-methyl-1,4-dihydropyrimidin-5-yl)ethanone (2c)], on Acetylcholinesterase, the IC50 was found to be 39.5 µM.

As for `CC(=O)C1=C(C)NC(NCC(=O)Nc2ccc(C)cc2)=NC1c1ccc(C)cc1` (stereo not drawn) [2-(5-Acetyl-6-methyl-4-p-tolyl-1,4-dihydropyrimidin-2-ylamino)-N-p-tolylacetamide (5h)], the IC50 at Acetylcholinesterase was 7.87 µM; in assay [1], 29.4 µM.

Regarding `CC(=O)C1=C(C)NC(SCC(=O)Nc2ccccc2)=NC1c1ccc(Br)cc1` (stereo not drawn) [2-(5-Acetyl-4-(4-bromophenyl)-6-methyl-1,4-dihydropyrimidin-2-ylthio)-N-phenylacetamide (4c)], the values for the concentration for half-maximal inhibition (IC50) (at Acetylcholinesterase; in assay [1]) were 8.23 µM and 24.5 µM, respectively.

Take `CC(=O)C1=C(C)NC(NCC(=O)Nc2ccccc2)=NC1c1ccc(Br)cc1` (stereo not drawn) [2-(5-Acetyl-4-(4-bromophenyl)-6-methyl-1,4-dihydropyrimidin-2-ylamino)-N-phenylacetamide (5c)]: the half-inhibitory concentration (IC50) against Acetylcholinesterase worked out at 12.9 µM; in assay [1], 38.5 µM.

Molecule `CC(=O)C1=C(C)NC(=S)NC1c1ccc(C)cc1` (stereo not drawn) [1-(6-Methyl-2-thioxo-4-p-tolyl-3,4-tetrahydropyrimidin-5-yl)ethanone (1d)] yielded a 50% inhibitory concentration (IC50) against Acetylcholinesterase of 55.9 µM.

The molecule `CC(=O)C1=C(C)NC(=S)NC1c1ccc(Cl)cc1` (stereo not drawn) [1-(4-(4-Chlorophenyl)-6-methyl-2-thioxo-3,4-tetrahydropyrimidin-5-yl)ethanone (1e)] displayed a half-inhibitory concentration (IC50) at Acetylcholinesterase of 59.9 µM.

For the molecule `CC(=O)C1=C(C)NC(SCC(=O)Nc2ccc(C)cc2)=NC1c1ccc(Cl)cc1` (stereo not drawn) [2-(5-Acetyl-4-(4-chlorophenyl)-6-methyl-1,4-dihydropyrimidin-2-ylthio)-N-p-tolylacetamide (4f)], the IC50 against Acetylcholinesterase was found to be 1.11 µM; in assay [1], 50 µM.

For orientation: IC50 means the point on the concentration scale where inhibition reaches its midpoint.
